According to patent publication US4518528A, “α Amino fluoro ketones” (priority 1984, dated 1985):
Where a SMILES comes first, the peptide text is derived from it. [ ]: non-standard residue; d: D form. The star is where a group is joined. ξ: configuration not given here. ξF = NC(Cc1ccccc1)C(=O)O; Cbz = O=C(OCc1ccccc1)*; CH2F = FC*

Columns and labels:
trypsin = test: Inhibition of trypsin by the method of Example 23; type: biochemical; settings: protease about 10 μM, ketone inhibitor about 0.1 mM
Experimental: (§1) An aqueous solution of elastase (0.3 μM) in 0.1M TES pH 8.2 containing CaCl2 (10 mM) was assayed against the synthetic substrate MeOSuc-Ala-Ala-Pro-Val-MNA. The liberated detecting group (MNA) was quantitated by fluorescence. A standard number of enzyme units were preincubated with each inhibitor at several concentrations for set time periods of 5, 15, 30, and 60 minutes at 37°; then all test samples were individually assayed for activity using the same synthetic substrate and conditions as per control with inhibitors absent. The amount of enzyme activity inhibited by each inhibitor was determined by subtracting the residual activity for each inhibitor against the control activity.
Following the method of Example 23 above, the serine protease trypsin is inhibited by the ketone inhibitor Z-LysCH2 F with a protease concentration of about 10 μM and a ketone inhibitor concentration of about 0.1 mM.

cathepsin B [1] = biological target: T1, cathepsin B (Rattus norvegicus, UniProt P00787); test: Rate of inhibition of cathepsin B in rat tissue homogenates; type: biochemical; settings: inhibitor 0.10 μM, 25°
T1 construct: cathepsin B in rat spleen, pancreas, liver and kidney tissue homogenates; from tissue; host or cells: rat spleen, pancreas, liver and kidney (supernatant of homogenates)
T1 sequence (P00787 80-339): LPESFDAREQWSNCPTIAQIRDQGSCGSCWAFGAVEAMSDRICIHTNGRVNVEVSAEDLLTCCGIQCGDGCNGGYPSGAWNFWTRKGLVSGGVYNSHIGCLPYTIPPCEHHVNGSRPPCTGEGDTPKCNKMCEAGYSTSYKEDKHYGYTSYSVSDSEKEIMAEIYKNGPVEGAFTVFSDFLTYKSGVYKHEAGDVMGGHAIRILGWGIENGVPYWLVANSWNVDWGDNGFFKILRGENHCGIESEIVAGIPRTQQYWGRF
Experimental: (§2) Enzyme activity was assayed using the synthetic oligopeptide substrate Bz-Val-Lys-Arg-AFC with 10 mM DTT and 1 mM of the activator salt EDTA at pH 6.5 by fluorescence detection of the liberated AFC. Units of enzyme activity were standardized per 100 ml of a 50 percent of glycerol-phosphate buffer solution. A standard concentration of enzyme (10 nM) was preincubated with each inhibitor (50 nM) over set time periods of 3, 5, 10, 15, 20 and 30 minutes, 25°; then all test samples were individually assayed for activity using the same synthetic substrate and condition to determine the remaining units of activity of the purified enzyme. The amount of enzyme activity inhibited by each inhibitor was determined by subtracting the residual activity for each inhibitor against the control activity. […] The inhibitor specificity constant (k3 /KI) for Z-Phe-AlaCH2 F is 30 fold higher than for Z-Phe-AlaCHN2.
The rate of inhibition of cathepsin B in rat spleen, pancreas, liver and kidney tissue homogenates was assayed using the inhibitors: Z-Phe-AlaCHN2; Z-Phe-AlaCH2 Cl; and Z-Phe-AlaCH2 F.
The proceding tissues were homogenized, centrifuged at 13,000 rpm for 25 minutes and the supernatant removed. Aliquots of the supernatant were diluted with water to yield a concentration of 0.01 μM. The method of Example 9 was followed. As soon in Table III, the inhibition by the three inhibitors relevant to Cathepsin B were compared for each of the tissue samples. Results are expressed as .tau. (the half-time of inactivation, inhibition). […] The concentration for the inhibitors was 0.10 μM and the incubation temperature was 25°.

cathepsin L = test: Inhibition of cathepsin L by the method of Example 22; type: biochemical; settings: same conditions and concentrations of protease to ketone inhibitor as Example 22
Experimental: Enzyme activity was assayed using the synthetic oligopeptide substrate Bz-Val-Lys-Arg-AFC with 10 mM DTT and 1 mM of the activator salt EDTA at pH 6.5 by fluorescence detection of the liberated AFC. Units of enzyme activity were standardized per 100 ml of a 50 percent of glycerol-phosphate buffer solution. A standard concentration of enzyme (10 nM) was preincubated with each inhibitor (50 nM) over set time periods of 3, 5, 10, 15, 20 and 30 minutes, 25°; then all test samples were individually assayed for activity using the same synthetic substrate and condition to determine the remaining units of activity of the purified enzyme. The amount of enzyme activity inhibited by each inhibitor was determined by subtracting the residual activity for each inhibitor against the control activity.

[2] = tested on: porcine pancreatic elastase; test: Irreversible inhibition of elastase, fluorescence assay with MeOSuc-Ala-Ala-Pro-Val-MNA; type: biochemical; settings: alkaline conditions (0.1M TES pH 8.2, 10 mM CaCl2), 37°
Experimental: as §1

cathepsin B [3] = test: Irreversible inhibition of purified cathepsin B, fluorescence assay with Bz-Val-Lys-Arg-AFC; type: biochemical, human and rat; settings: for k3 (rate constant of inactivation) / Ki: pH 6.5, 10 mM DTT, 1 mM EDTA, 25°; for Ki: read-out: KI (inhibitor dissociation constant); for k3 /KI (inhibitor specificity constant): pH 6.5, 25°
Experimental: as §2, with “([…])” for “(10 nM) was preincubated with each inhibitor (50 nM)”

glandular kallikrein = test: Inhibition of glandular kallikrein by the method of Example 23; type: biochemical; settings: protease about 10 μM, ketone inhibitor about 0.1 mM
Experimental: as §1
Following the method of Example 23 above, the serine protease glandular kallikrein is inhibited by the ketone inhibitor D-Val-Leu-ArgCH2 F with a protease concentration of about 10 μM and a ketone inhibitor concentration of about 0.1 mM.

plasma kallikrein = test: Inhibition of plasma kallikrein by the method of Example 23; type: biochemical; settings: protease about 10 μM, ketone inhibitor about 0.1 mM
Experimental: as §1
Following the method of Example 23, above, the serine protease plasma kallikrein is inhibited by the ketone inhibitor D-Pro-Phe-ArgCH2 F under the same conditions with a protease concentration of about 10 μM and ketone inhibitor concentration of about 0.1 mM.

plasminogen activator = test: Inhibition of plasminogen activator by the method of Example 23; type: biochemical; settings: protease about 50 μM, ketone inhibitor about 0.1 mM
Experimental: as §1
Following the method of Example 23, above, the serine protease plasminogen activator is inhibited by MeOSuc-Gly-Gly-ArgCH2 F under the same conditions with a protease concentration of about 50 μM and a ketone inhibitor concentration of about 0.1 mM.

NCCCCC(NC(=O)OCc1ccccc1)C(=O)CF (stereo not drawn) [Z-LysCH2 F]
inhibition of trypsin (in words) (trypsin): inhibited

C[C@H](NC(=O)[C@H](Cc1ccccc1)NC(=O)OCc1ccccc1)C(=O)CCl [Z-Phe-AlaCH2 Cl]
.tau. Half-Time (half-time of inactivation) (cathepsin B [1]; rat KIDNEY homogenate): 76.6 min
.tau. Half-Time (half-time of inactivation) (cathepsin B [1]; rat LIVER homogenate): 66.5 min
.tau. Half-Time (half-time of inactivation) (cathepsin B [1]; rat PANCREAS homogenate): 21.4 min
.tau. Half-Time (half-time of inactivation) (cathepsin B [1]; rat SPLEEN homogenate): 74.2 min

O=C(N[C@@H](Cc1ccccc1)C(=O)NC(Cc1ccccc1)C(=O)CF)OCc1ccccc1 (stereo partly drawn) [Z-Phe-PheCH2 F] (Cbz-Phe-[ξF]-CH2F)
inhibition of cathepsin L (in words) (cathepsin L): inhibited

CC(NC(=O)[C@H](Cc1ccccc1)NC(=O)OCc1ccccc1)C(=O)CF (stereo partly drawn) [Z-Phe-AlaCH2 F, 3-(N-Benzyloxycarbonylphenylalanylamido)-1-fluoro-2-butanone]
inhibition of porcine pancreatic elastase (in words) [2]: inhibits
.tau. Half-Time (half-time of inactivation) (cathepsin B [1]; rat KIDNEY homogenate): 7.9 min
.tau. Half-Time (half-time of inactivation) (cathepsin B [1]; rat LIVER homogenate): 8.5 min
.tau. Half-Time (half-time of inactivation) (cathepsin B [1]; rat PANCREAS homogenate): 12.4 min
.tau. Half-Time (half-time of inactivation) (cathepsin B [1]; rat SPLEEN homogenate): 14.2 min
inhibition of purified cathepsin B (in words) (cathepsin B [3]; 0.1 μM inhibitor): effective inhibitor
k3 /KI fold higher than for Z-Phe-AlaCHN2 (cathepsin B [3]; purified cathepsin B): 30 fold
k3 (rate constant of inactivation) (cathepsin B [3]; purified cathepsin B): 9.2±1.3×10^-3 s^-1
Ki (cathepsin B [3]; purified cathepsin B): 0.57 ± 0.09 µM
k3 /KI (inhibitor specificity constant) (cathepsin B [3]; purified cathepsin B): 16,200 M^-1 s^-1
inhibition of cathepsin L (in words) (cathepsin L): inhibited

C[C@H](NC(=O)[C@H](Cc1ccccc1)NC(=O)OCc1ccccc1)C(=O)C=[N+]=[N-] [Z-Phe-AlaCHN2]
.tau. Half-Time (half-time of inactivation) (cathepsin B [1]; rat KIDNEY homogenate): 20.1 min
.tau. Half-Time (half-time of inactivation) (cathepsin B [1]; rat LIVER homogenate): 22.4 min
.tau. Half-Time (half-time of inactivation) (cathepsin B [1]; rat PANCREAS homogenate): 15.8 min
.tau. Half-Time (half-time of inactivation) (cathepsin B [1]; rat SPLEEN homogenate): 26.4 min
k3 (rate constant of inactivation) (cathepsin B [3]; purified cathepsin B): 4.1±1.7×10^-3 s^-1
Ki (cathepsin B [3]; purified cathepsin B): 7.4 ± 3 µM
k3 /KI (inhibitor specificity constant) (cathepsin B [3]; purified cathepsin B): 546 M⁻¹ s⁻¹

CC(C)C[C@H](NC(=O)[C@H](N)C(C)C)C(=O)N[C@@H](CCCNC(=N)N)C(=O)CF [D-Val-Leu-ArgCH2 F] (HELM PEPTIDE1{[dV].L.R.[FC[*:1]]}$$$$V2.0)
inhibition of glandular kallikrein (in words) (glandular kallikrein): inhibited

N=C(N)NCCC[C@H](NC(=O)[C@H](Cc1ccccc1)NC(=O)[C@H]1CCCN1)C(=O)CF [D-Pro-Phe-ArgCH2 F] (HELM PEPTIDE1{[dP].F.R.[FC[*:1]]}$$$$V2.0)
inhibition of plasma kallikrein (in words) (plasma kallikrein): inhibited

COC(=O)CCC(=O)NCC(=O)NCC(=O)NC(CCCNC(=N)N)C(=O)CF (stereo not drawn) [MeOSuc-Gly-Gly-ArgCH2 F]
inhibition of plasminogen activator (in words) (plasminogen activator): inhibited
